Data from patent publication US20030162838A1, “Bactericide, antiseptic, dermally applicable composition, washing composition, antibacterial fiber aggregate, method for eradicating a microorganism, and method for inhibiting the proliferation of a microorgamism” (Ajinomoto Co., Inc., priority 2001, published 2003).
Entries after “also recorded” stand apart in the source; their conditions may differ.

Tests used:
Type in all cases: cell-based
[1] = test system: Streptococcus mutans (ATCC35275); assay: Antibacterial activity evaluation, agar dilution MIC; details: Muller-Hinton agar medium, 35° C. for 48 hours
Source text: (§1) 4-Guanidinobutyldodecanamide hydrochloride (LAG-HCl) which is a salt of an amide group-containing guanidine derivative and N-cocoyl-L-arginine ethyl ester-DL-pyrrolidone carboxylate which is an N-long chain acyl basic amino acid derivative were examined for their concentrations at which the growth of each test strain was inhibited completely (MIC).
(§2) The test strains employed were Escherichia coli (ATCC8739), Pseudomonas aeruginosa (ATCC9027), Staphylococcus aureus (ATCC6538), Streptococcus mutans (ATCC35275), Propionibacterium acnes (ATCC6919), Candida albicans (ATCC10231), Aspergillus niger (ATCC16404), Trichophyton mentagrophytes (ATCC11480) and Malassezia furfur (ATCC14521).
(§3) A bacterial cell suspension of E.coli, P.aeruginosa, S.aureus and S.mutans was obtained by incubation in a sensitive broth medium at 35° C. for 20 hours. The bacterial cell suspension of P.acnes was obtained by anaerobic incubation in a GAM agar medium at 35° C. for 20 hours followed by collecting cells with a platinum loop spatula followed by suspending the cells in a sterilized physiological saline at a cell density at about 10^8 cells/ml. The bacterial cell suspension of C.albicans was obtained by incubation in a potato dextrose agar medium at 25° C. for 48 hours followed by collecting cells with a platinum loop spatula followed by suspending the cells in a sterilized physiological saline at a cell density at about 10^6 cells/ml. The bacterial cell suspension of A.niger was obtained by incubation in a potato dextrose agar medium at 25° C. for 7 days followed by collecting cells with a platinum loop spatula followed by suspending the cells in a sterilized physiological saline followed by filtration through a sterilized gauze to adjust at a cell density at about 10^6 cells/ml. The bacterial cell suspension of T.mentagrophytes was obtained by incubation in a Sabouraud's agar medium at 25° C. for 7 days followed by collecting spores and hyphae with a platinum loop spatula followed by suspending the cells in a sterilized physiological saline followed by pelletizing using a homogenizer to adjust at a cell density at about 10^6 cells/ml. The bacterial cell suspension of M.furfur was obtained by incubation in an YMO agar medium at 25° C. for 7 days followed by suspending the test strain in a sterilized phosphate-buffered physiological saline at a cell density at about 10^6 cells/ml.
(§4) To obtain an antibacterial activity assay sample, 4-guanidinobutyldodecanamide hydrochloride was dissolved in ethylene glycol at 2% which was used as a mother liquor which was diluted with water subsequently. N-cocoyl-L-arginine ethyl ester-DL-pyrrolidone carboxylate was dissolved in water to prepare a test solution. The respective minimum growth inhibition concentration at which no microbial growth was observed was determined (μg/ml).
(§5) The agar medium (19 ml) was dissolved once and then kept at 50° C., and to this solution 1 ml of each diluted […] was added until reaching the intended concentration and mixed thoroughly and then solidified.
(§6) Subsequently, the cell suspension of each test strain was sampled using a platinum loop spatula, with which an about 1 cm line was drawn on the antibacterial agent-supplemented agar plate. Each plate was incubated at the respective temperature for the respective time period shown below. […]
(§7) For E.coli, P.aeruginosa, S.aureus, S.mutans, P.acnes, C.albicans, A.niger, T.mentagrophytes, M.furfur, the respective agar medium indicated in the Table 1 shown above was shown. […]

[2] = test system: Trichophyton mentagrophytes (ATCC11480); assay: as above; details: Sabouraud's agar medium, 25° C. for 7 days
Source text: as §1, §2, §3, §4, §5, §6, §7

[3] = test system: Escherichia coli (ATCC8739); assay: as above; details: Muller-Hinton agar medium, 35° C. for 48 hours
Source text: as §1, §2, §3, §4, §5, §6, §7

[4] = test system: Pseudomonas aeruginosa (ATCC9027); assay: as above; details: Muller-Hinton agar medium, 35° C. for 48 hours
Source text: as §1, §2, §3, §4, §5, §6, §7

[5] = test system: Staphylococcus aureus (ATCC6538); assay: as above; details: Muller-Hinton agar medium, 35° C. for 48 hours
Source text: as §1, §2, §3, §4, §5, §6, §7

[6] = test system: Candida albicans (ATCC10231); assay: as above; details: Potato dextrose agar medium, 25° C. for 48 hours
Source text: as §1, §2, §3, §4, §5, §6, §7

[7] = test system: Malassezia furfur (ATCC14521); assay: as above; details: YMO agar medium, 25° C. for 7 days
Source text: as §1, §2, §3, §4, §5, §6, §7

[8] = test system: Propionibacterium acnes (ATCC6919); assay: as above; details: GAM agar medium, 35° C. for 48 hours (anaerobic incubation)
Source text: as §1, §2, §3, §4, §5, §6, §7

[9] = test system: Aspergillus niger (ATCC16404); assay: as above; details: Potato dextrose agar medium, 25° C. for 5 days
Source text: as §1, §2, §3, §4, §5, §6, §7

test strains = assay: Antibacterial activity evaluation, overall verdict over all test strains; details: summary of the MIC tables
Source text: as §1, §2, §4
(§8) In order to evaluate the contribution of acyl moiety to the antibacterial activity in amido group-containing guanidine derivatives, 4-guanidinobutyldecanamide acetate (DAG-AcOH), 4-guanidinobutyldodecanamide acetate (LAG-AcOH), 4-guanidinobutymyristilamide acetate (MAG-AcOH), 4-guanidinobutylpalmitylamide acetate (PAG-AcOH) were examined for their concentrations at which the growth of each test strain was inhibited completely (MIC).
as §2, with “aeruglnosa” for “aeruginosa”, “(ATCC11480),” for “(ATCC11480) and”, “(ATCC14521), MRSA and Cladosporium cladosporioides (IFO6348).” for “(ATCC14521).”
(§9) The respective minimum growth inhibition concentration at which no microbial growth was observed was determined (Table 4).

MRSA = assay: Antibacterial activity evaluation, agar dilution MIC; details: Muller-Hinton agar medium, 35° C. for 48 hours
Source text: as §8
as §2, with “aeruglnosa” for “aeruginosa”, “(ATCC11480),” for “(ATCC11480) and”, “(ATCC14521), MRSA and Cladosporium cladosporioides (IFO6348).” for “(ATCC14521).”
The bacterial cell suspension of MRSA was obtained by incubation in a sensitive broth medium at 35° C. for 20 hours.
(§10) To obtain an antibacterial activity assay sample, each compound was dissolved in water to prepare a test solution, which was used as a mother liquor which was diluted with water subsequently.
as §9
(§11) The agar medium (19 ml) was dissolved once and then kept at 50° C., and to this solution 1 ml of each diluted […] was added until reaching the intended concentration and mixed thoroughly and solidified.
(§12) Subsequently, the cell suspension of each test strain was sampled using a platinum loop spatula, with which an about 1 cm line was drawn on the antibacterial agent-supplemented agar plate. Each plate was incubated at the respective temperature for the respective time period shown below.

[10] = test system: Cladosporium cladosporioides (IFO6348); assay: as above; details: Potato dextrose agar medium, 25° C. for 5 days
Source text: as §8
as §2, with “aeruglnosa” for “aeruginosa”, “(ATCC11480),” for “(ATCC11480) and”, “(ATCC14521), MRSA and Cladosporium cladosporioides (IFO6348).” for “(ATCC14521).”
The bacterial cell suspension of Cladosporium cladosporioides was obtained by incubation in a potato dextrose agar medium at 25° C. for 7 days followed by collecting cells with a platinum loop spatula followed by suspending […] the cells in a sterilized physiological saline followed by filtration through a sterilized gauze to adjust at a cell density at about 10^6 cells /ml.
as §10, §9, §11, §12

Row | Compound | MIC, S. mutans [1] [µg/mL] | MIC, T. mentagrophytes [2] [µg/mL] | MIC, E. coli [3] [µg/mL] | MIC, P. aeruginosa [4] [µg/mL] | MIC, S. aureus [5] [µg/mL] | MIC, C. albicans [6] [µg/mL] | MIC, M. furfur [7] [µg/mL] | MIC, P. acnes [8] [µg/mL] | MIC, A. niger [9] [µg/mL] | antibacterial activity against any of the test strains (verdict in words) (test strains) | MIC, MRSA (MRSA) [µg/mL] | MIC, C. cladosporioides [10] [µg/mL] | antibacterial activity against any of the test strains (verdict in words) (test strains; acetate)
1 | 4-Guanidinobutyldodecanamide hydrochloride [LAG-HCl] | 5 to 7.5 | 75 to 100 | 75 to 100 | 75 to 100 | 7.5 to 10 | 500 to 750 | 100 to 150 | 7.5 to 10 | 200 to 300 | satisfactory antibacterial activity | – | – | –
2 | CC(=O)O.CCCCCCCCCC(=O)NCCCCNC(=N)N [DAG-AcOH, 4-guanidinobutyldecanamide acetate] | 20 to 30 | 75 to 100 | 150 to 200 | 200 to 300 | 30 to 50 | 300 to 500 | 50 to 75 | 30 to 50 | 300 to 500 | satisfactory antibacterial activity | 50 to 75 | 200 to 300 | –
3 | CC(=O)O.CCCCCCCCCCCC(=O)NCCCCNC(=N)N [LAG-AcOH, 4-guanidinobutyldodecanamide acetate] | 5 to 7.5 | 30 to 50 | 30 to 50 | 75 to 100 | 2 to 3 | 300 to 500 | 50 to 75 | 10 to 15 | 200 to 300 | – | 10 to 15 | 150 to 200 | satisfactory antibacterial activity; also recorded: the best antibacterial activity
4 | CC(=O)O.CCCCCCCCCCCCCC(=O)NCCCCN=C(N)N [MAG-AcOH, 4-guanidinobutymyristilamide acetate] | 3 to 5 | 75 to 100 | 50 to 75 | 300 to 500 | 3 to 5 | 500 to 750 | 100 to 150 | 10 to 15 | 300 to 500 | satisfactory antibacterial activity | 10 to 15 | 200 to 300 | –
5 | N-cocoyl-L-arginine ethyl ester-DL-pyrrolidone carboxylate [CAE, reference compound] | 5 to 7.5 | 100 to 150 | 75 to 100 | 200 to 300 | 5 to 7.5 | 300 to 500 | 75 to 100 | 20 to 30 | 300 to 500 | satisfactory antibacterial activity | – | – | –
